Laboratory results published in patent publication US20110236504A1, “VERSATILE DISINFECTANT” (priority 2008, published 2011).
Like-named read-outs stand apart in the source and are kept apart here.

Columns and labels:
[1] = tested on: S. aureus 209P; experiment: Metal ion or food preservative added to growth medium, viable count; format: cell-based
Experimental: (§1) To a standard medium for counting viable bacteria described below, each metal ion with varied concentration was added. […] Then, the number of viable bacteria was counted with time in a common procedure.
(§2) Sample bacteria: S. aureus 209P as a representative of Gram-positive bacteria • E. coli 0-157 as a representative of Gram-negative bacteria
(§3) Standard medium for counting viable bacteria: yeast extract 2.5 g, peptone 5 g, glucose 1 g, agar 15 g, pH 7.2

[2] = tested on: E. coli O-157; experiment: as above; format: cell-based; conditions: food preservative in growth medium
[3] = tested on: sample bacteria (S. aureus 209P, E. coli O-157); experiment: Death rate over time, food preservative in purified water pH 3.0
[4] = tested on: viable bacteria in sputum; experiment: Sterilization effect on specimen: sputum; conditions: Sputum 2 × 10^9/g
[5] = tested on: intestinal bacteria in feces; experiment: Sterilization effect on specimen: feces; conditions: Feces 1.5 × 10^11/g
[6] = tested on: pus mainly including antibiotic resistant MRSA; conditions: Pus (MRSA) 4 × 10^9/g
[7] = tested on: pus mainly including antibiotic resistant Pseudomonas aeruginosa (MDRP); conditions: Pus (MDRP) 5 × 10^9/g
[8] = tested on: spores of Bacillus species; experiment: Spore decay time and decay rate in dried soil, aerobic culture; format: cell-based; conditions: for Spore decay rate, Spores of Bacillus species: 1 g dried soil in 10 ml, aerobic culture
Experimental: (§4) Sands in a sandbox in a park and riverside soil were collected and mixed. The mixture was dried with heated air at 80 to 90° C. for 6 hours. Then, 1 g of the dried mixture was added into water and immediately filtered with a filter. A part of the filtrate was applied onto a glass slide, and spores were stained in a common procedure. The number of stained spores was counted and the number of spores contained in 1 g of soil was determined. Simultaneously, the spores were aerobically (Bacillus species proliferated) and anaerobically (Clostridium species proliferated) cultured, and each ratio was determined.
(§5) Then, into 10 ml of the sample disinfectant, 1 g of the dried soil was added. Some of the mixture was collected with time, and cultured aerobically and anaerobically. The number of growing colonies was counted to determine the decay rate of the spores.

[9] = tested on: spores of Clostridium species; experiment: Spore decay time and decay rate in dried soil, anaerobic culture; format: cell-based; conditions: for Spore decay rate, Spores of Clostridium species: 1 g dried soil in 10 ml, anaerobic culture
Experimental: as §4, §5

[10] = tested on: E. coli O-157; experiment: Metal ion or food preservative added to growth medium, viable count; format: cell-based; conditions: metal ion in growth medium
Experimental: as §1, §2, §3

[11] = food preservative in growth medium

## C/C=C/C=C/C(=O)[O-].[K+] [Potassium sorbate]
[1]; [11]
  (a) Antiproliferative activity, concentration: 35~250 ppm
  (b) Bacteriostatic activity, concentration: 200 ppm>
[2]
  (a) Antiproliferative activity, concentration: 30~250 ppm
  (b) Bacteriostatic activity, concentration: 250 ppm>
[3]; 50 ppm, 5 min
  Death rate: 0
[3]; 50 ppm, 10 min
  Death rate: 0
[3]; 50 ppm, 15 min
  Death rate: 0
[3]; 50 ppm, 30 min
  Death rate: 2
[3]; 50 ppm, 60 min
  Death rate: 5
[3]; 50 ppm, 90 min
  Death rate: 8
[3]; 50 ppm, 120 min
  Death rate: 12
[3]; 200 ppm, 5 min
  Death rate: 0
[3]; 200 ppm, 10 min
  Death rate: 0
[3]; 200 ppm, 15 min
  Death rate: 0
[3]; 200 ppm, 30 min
  Death rate: 2
[3]; 200 ppm, 60 min
  Death rate: 6
[3]; 200 ppm, 90 min
  Death rate: 10
[3]; 200 ppm, 120 min
  Death rate: 15
[3]; 500 ppm, 5 min
  Death rate: 0
[3]; 500 ppm, 10 min
  Death rate: 0
[3]; 500 ppm, 15 min
  Death rate: 1
[3]; 500 ppm, 30 min
  Death rate: 3
[3]; 500 ppm, 60 min
  Death rate: 7
[3]; 500 ppm, 90 min
  Death rate: 12
[3]; 500 ppm, 120 min
  Death rate: 18

## O=C([O-])c1ccccc1.[Na+] [Sodium benzoate]
[1]; [11]
  (a) Antiproliferative activity, concentration: 40~300 ppm
  (b) Bacteriostatic activity, concentration: 250 ppm>
[2]
  (a) Antiproliferative activity, concentration: 40~300 ppm
  (b) Bacteriostatic activity, concentration: 220 ppm>
[3]; 50 ppm, 5 min
  Death rate: 0
[3]; 50 ppm, 10 min
  Death rate: 0
[3]; 50 ppm, 15 min
  Death rate: 0
[3]; 50 ppm, 30 min
  Death rate: 2
[3]; 50 ppm, 60 min
  Death rate: 5
[3]; 50 ppm, 90 min
  Death rate: 8
[3]; 50 ppm, 120 min
  Death rate: 10
[3]; 200 ppm, 5 min
  Death rate: 0
[3]; 200 ppm, 10 min
  Death rate: 0
[3]; 200 ppm, 15 min
  Death rate: 0
[3]; 200 ppm, 30 min
  Death rate: 2
[3]; 200 ppm, 60 min
  Death rate: 5
[3]; 200 ppm, 90 min
  Death rate: 10
[3]; 200 ppm, 120 min
  Death rate: 12
[3]; 500 ppm, 5 min
  Death rate: 0
[3]; 500 ppm, 10 min
  Death rate: 0
[3]; 500 ppm, 15 min
  Death rate: 1
[3]; 500 ppm, 30 min
  Death rate: 3
[3]; 500 ppm, 60 min
  Death rate: 8
[3]; 500 ppm, 90 min
  Death rate: 12
[3]; 500 ppm, 120 min
  Death rate: 15

## OCl [Sodium hypochlorite, sodium hypochlorite]
[4]; 5 min after addition
  The number of viable bacteria in specimen: 20000 g⁻¹
[4]; 15 min after addition
  The number of viable bacteria in specimen: 10000 g⁻¹
[4]; 30 min after addition
  The number of viable bacteria in specimen: 10000 g⁻¹
[4]; 60 min after addition
  The number of viable bacteria in specimen: 5000 g⁻¹
[4]; 60 min after addition, listed as sodium hypochlorite
  The number of viable bacteria in specimen: 5000 g⁻¹
[5]; 5 min after addition
  The number of viable bacteria in specimen: 1e+08 g⁻¹
[5]; 15 min after addition
  The number of viable bacteria in specimen: 8e+06 g⁻¹
[5]; 30 min after addition
  The number of viable bacteria in specimen: 8e+06 g⁻¹
[5]; 60 min after addition
  The number of viable bacteria in specimen: 1e+07 g⁻¹
[5]; 60 min after addition, listed as hypochlorite
  The number of viable bacteria in specimen: 1e+07 g⁻¹
[6]; 5 min after addition
  The number of viable bacteria in specimen: 30000 g⁻¹
[6]; 15 min after addition
  The number of viable bacteria in specimen: 500 g⁻¹
[6]; 30 min after addition
  The number of viable bacteria in specimen: 100 g⁻¹
[6]; 60 min after addition
  The number of viable bacteria in specimen: 0 g⁻¹
[7]; 5 min after addition
  The number of viable bacteria in specimen: 2000 g⁻¹
[7]; 15 min after addition
  The number of viable bacteria in specimen: 1000 g⁻¹
[7]; 30 min after addition
  The number of viable bacteria in specimen: 200 g⁻¹
[7]; 60 min after addition
  The number of viable bacteria in specimen: 100 g⁻¹
[8]; 1 min contact
  Spore decay rate, Spores of Bacillus species: 0%
[8]; 5 min contact
  Spore decay rate, Spores of Bacillus species: 0%
[8]; 10 min contact
  Spore decay rate, Spores of Bacillus species: 10%
[8]; 30 min contact
  Spore decay rate, Spores of Bacillus species: 30%
[8]; 60 min contact
  Spore decay rate, Spores of Bacillus species: 100%
[8]; 60 minutes contact
  spores decayed: 100%
[8]; 120 min contact
  Spore decay rate, Spores of Bacillus species: 100%
[9]; 1 min contact
  Spore decay rate, Spores of Clostridium species: 0%
[9]; 5 min contact
  Spore decay rate, Spores of Clostridium species: 5%
[9]; 10 min contact
  Spore decay rate, Spores of Clostridium species: 20%
[9]; 30 min contact
  Spore decay rate, Spores of Clostridium species: 30%
[9]; 60 min contact
  Spore decay rate, Spores of Clostridium species: 100%
[9]; 60 minutes contact
  spores decayed: 100%
[9]; 120 min contact
  Spore decay rate, Spores of Clostridium species: 100%

## C/C=C/C=C/C(=O)O [Sorbic acid]
[1]; [11]
  (a) Antiproliferative activity, concentration: 20~200 ppm
  (b) Bacteriostatic activity, concentration: 150 ppm>
[2]
  (a) Antiproliferative activity, concentration: 20~200 ppm
  (b) Bacteriostatic activity, concentration: 200 ppm>
[3]; 50 ppm, 5 min
  Death rate: 0
[3]; 50 ppm, 10 min
  Death rate: 0
[3]; 50 ppm, 15 min
  Death rate: 0
[3]; 50 ppm, 30 min
  Death rate: 2
[3]; 50 ppm, 60 min
  Death rate: 5
[3]; 50 ppm, 90 min
  Death rate: 10
[3]; 50 ppm, 120 min
  Death rate: 15
[3]; 200 ppm, 5 min
  Death rate: 0
[3]; 200 ppm, 10 min
  Death rate: 0
[3]; 200 ppm, 15 min
  Death rate: 0
[3]; 200 ppm, 30 min
  Death rate: 2
[3]; 200 ppm, 60 min
  Death rate: 7
[3]; 200 ppm, 90 min
  Death rate: 12
[3]; 200 ppm, 120 min
  Death rate: 18
[3]; 500 ppm, 5 min
  Death rate: 0
[3]; 500 ppm, 10 min
  Death rate: 0
[3]; 500 ppm, 15 min
  Death rate: 1
[3]; 500 ppm, 30 min
  Death rate: 3
[3]; 500 ppm, 60 min
  Death rate: 10
[3]; 500 ppm, 90 min
  Death rate: 15
[3]; 500 ppm, 120 min
  Death rate: 20

## O.O.O.O.O.O.O.O=S(=O)([O-])[O-].[Zn+2] [Zn^2+, ZnSO4•7H2O]
[10]
  (a) Antiproliferative activity, concentration: 10~15 ppm
  (b) Bacteriostatic activity, concentration: 15~250 ppm
  (c) Bactericidal activity, concentration: 250 ppm>
  Acceleration of growth, concentration: 10 ppm<
[1]; metal ion in growth medium
  (a) Antiproliferative activity, concentration: 12~18 ppm
  (b) Bacteriostatic activity, concentration: 16~200 ppm
  (c) Bactericidal activity, concentration: 200 ppm>
  Acceleration of growth, concentration: 10 ppm<
